The results in this text go back to ChEMBL document CHEMBL5465560, “Selectivity Literature for EUbOPEN Chemogenomic Library” (2024).

Assay [1] has as its target Calcium/calmodulin-dependent protein kinase type II subunit alpha (Homo sapiens, UniProt Q9UQM7). The assay is described as follows: Selectivity interaction (SelectScreen profiling (Invitrogen)) EUB0000607a CAMK2A. The conditions noted are these: at 2 µM.
Assay [2] has as its target Mitogen-activated protein kinase kinase kinase 9 (Homo sapiens) (UniProt P80192). The assay is described as follows: Selectivity interaction (KinomeScan (DiscoverX)) EUB0000607a MAP3K9. The conditions noted are these: at 10 µM.
In assay [3] the target is Ribosomal protein S6 kinase alpha-3 (Homo sapiens, UniProt P51812). The experiment in a line: Selectivity interaction (SelectScreen profiling (Invitrogen)) EUB0000607a RPS6KA3. As to conditions: at 2 µM.
Ribosomal protein S6 kinase alpha-3, sequence (P51812 whole entry): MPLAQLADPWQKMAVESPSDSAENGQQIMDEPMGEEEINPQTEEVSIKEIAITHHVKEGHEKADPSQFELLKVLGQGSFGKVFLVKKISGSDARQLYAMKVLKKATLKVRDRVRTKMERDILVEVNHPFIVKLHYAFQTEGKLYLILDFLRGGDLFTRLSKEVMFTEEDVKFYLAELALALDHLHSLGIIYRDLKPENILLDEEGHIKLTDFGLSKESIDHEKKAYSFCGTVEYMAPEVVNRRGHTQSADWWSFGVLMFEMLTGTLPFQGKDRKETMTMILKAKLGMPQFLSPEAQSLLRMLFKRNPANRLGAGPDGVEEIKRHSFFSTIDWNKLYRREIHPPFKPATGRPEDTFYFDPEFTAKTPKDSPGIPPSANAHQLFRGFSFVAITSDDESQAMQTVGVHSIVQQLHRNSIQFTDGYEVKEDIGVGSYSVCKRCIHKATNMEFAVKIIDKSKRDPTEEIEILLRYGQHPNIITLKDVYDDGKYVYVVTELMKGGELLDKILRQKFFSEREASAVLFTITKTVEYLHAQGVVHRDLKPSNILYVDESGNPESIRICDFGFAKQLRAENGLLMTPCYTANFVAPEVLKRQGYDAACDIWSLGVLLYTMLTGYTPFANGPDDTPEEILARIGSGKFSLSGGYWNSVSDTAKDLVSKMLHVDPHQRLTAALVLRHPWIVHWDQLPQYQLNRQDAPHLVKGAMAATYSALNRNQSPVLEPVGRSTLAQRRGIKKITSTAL
Assay [4] deals with Tyrosine-protein kinase ABL1 (Homo sapiens, UniProt P00519). As to conditions: at 10 µM.
The subject of assay [5] is Tyrosine-protein kinase ABL1 (Homo sapiens), P00519 [Q252H]. The assay is described as follows: Selectivity interaction (KinomeScan (DiscoverX)) EUB0000666a ABL1. As to conditions: at 10 µM.
Assay [6] concerns the target Tyrosine-protein kinase CSK (Homo sapiens) (UniProt P41240). The assay is described as follows: Selectivity interaction (KinomeScan (DiscoverX)) EUB0000229b CSK. The conditions noted are these: at 10 µM.
Assay [7] concerns the target T1, Aurora kinase A (Homo sapiens) (UniProt O14965).
T1 sequence (whole entry): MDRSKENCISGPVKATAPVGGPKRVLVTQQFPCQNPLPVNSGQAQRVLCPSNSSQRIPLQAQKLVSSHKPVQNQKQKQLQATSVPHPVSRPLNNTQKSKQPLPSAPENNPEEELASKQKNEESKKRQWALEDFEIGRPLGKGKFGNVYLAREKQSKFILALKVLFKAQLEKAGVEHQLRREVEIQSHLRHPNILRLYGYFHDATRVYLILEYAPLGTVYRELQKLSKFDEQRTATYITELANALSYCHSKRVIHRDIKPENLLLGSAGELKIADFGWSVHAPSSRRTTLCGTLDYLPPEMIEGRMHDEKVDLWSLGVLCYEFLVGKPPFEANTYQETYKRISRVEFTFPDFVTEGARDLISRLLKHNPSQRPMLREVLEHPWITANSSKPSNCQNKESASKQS
The assay is described as follows: Selectivity interaction (KinomeScan (DiscoverX)) EUB0000655a STK6. As to conditions: at 10 µM.

Assay [8] has as its target T2, Dual serine/threonine and tyrosine protein kinase (Homo sapiens) (UniProt Q6XUX3).
T2 sequence (whole entry): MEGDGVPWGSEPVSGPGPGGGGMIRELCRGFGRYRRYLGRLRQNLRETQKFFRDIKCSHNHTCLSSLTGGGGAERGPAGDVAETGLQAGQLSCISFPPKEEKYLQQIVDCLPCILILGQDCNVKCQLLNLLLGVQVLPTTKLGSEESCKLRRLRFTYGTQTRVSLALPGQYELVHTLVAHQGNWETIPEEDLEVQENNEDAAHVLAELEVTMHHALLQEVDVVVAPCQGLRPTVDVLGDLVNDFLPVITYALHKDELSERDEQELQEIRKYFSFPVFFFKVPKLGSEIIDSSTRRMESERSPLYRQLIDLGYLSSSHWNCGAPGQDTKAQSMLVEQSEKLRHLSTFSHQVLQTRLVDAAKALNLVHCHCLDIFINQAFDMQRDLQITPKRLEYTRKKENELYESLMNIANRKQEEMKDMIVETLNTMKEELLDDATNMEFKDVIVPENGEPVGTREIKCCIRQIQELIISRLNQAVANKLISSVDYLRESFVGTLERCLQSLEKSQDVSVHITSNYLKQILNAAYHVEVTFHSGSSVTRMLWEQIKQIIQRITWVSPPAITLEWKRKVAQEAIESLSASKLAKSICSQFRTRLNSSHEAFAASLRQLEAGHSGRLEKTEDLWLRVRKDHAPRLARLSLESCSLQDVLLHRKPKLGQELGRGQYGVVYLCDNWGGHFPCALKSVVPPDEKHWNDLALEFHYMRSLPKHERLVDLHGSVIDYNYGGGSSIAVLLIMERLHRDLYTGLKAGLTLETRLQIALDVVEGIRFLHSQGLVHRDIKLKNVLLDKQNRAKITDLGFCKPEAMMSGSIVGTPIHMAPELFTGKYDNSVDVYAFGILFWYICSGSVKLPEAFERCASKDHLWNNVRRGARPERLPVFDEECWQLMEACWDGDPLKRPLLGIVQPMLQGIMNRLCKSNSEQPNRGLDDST
The assay is described as follows: Selectivity interaction (KinomeScan (DiscoverX)) EUB0000655a DSTYK. As to conditions: at 10 µM.

The target of assay [9] is Cyclin-dependent kinase-like 1 (Homo sapiens) (UniProt Q00532). The experiment in a line: Selectivity interaction (KinomeScan (DiscoverX)) EUB0001619a CDKL1. The conditions noted are these: at 1 µM.
Cyclin-dependent kinase-like 1 (Homo sapiens), sequence (Q00532 whole entry): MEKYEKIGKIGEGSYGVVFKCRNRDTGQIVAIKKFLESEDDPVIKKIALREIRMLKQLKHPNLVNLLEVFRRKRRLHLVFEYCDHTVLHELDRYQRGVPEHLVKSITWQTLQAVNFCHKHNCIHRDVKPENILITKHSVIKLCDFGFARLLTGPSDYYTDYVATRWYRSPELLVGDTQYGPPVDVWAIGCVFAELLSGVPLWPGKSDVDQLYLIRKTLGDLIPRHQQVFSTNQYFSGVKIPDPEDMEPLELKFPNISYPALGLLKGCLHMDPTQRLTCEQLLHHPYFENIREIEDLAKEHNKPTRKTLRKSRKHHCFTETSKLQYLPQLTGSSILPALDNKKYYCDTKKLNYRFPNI
The target of assay [10] is T3, Serine/threonine-protein kinase tousled-like 1 (Homo sapiens) (UniProt Q9UKI8).
T3 sequence (whole entry): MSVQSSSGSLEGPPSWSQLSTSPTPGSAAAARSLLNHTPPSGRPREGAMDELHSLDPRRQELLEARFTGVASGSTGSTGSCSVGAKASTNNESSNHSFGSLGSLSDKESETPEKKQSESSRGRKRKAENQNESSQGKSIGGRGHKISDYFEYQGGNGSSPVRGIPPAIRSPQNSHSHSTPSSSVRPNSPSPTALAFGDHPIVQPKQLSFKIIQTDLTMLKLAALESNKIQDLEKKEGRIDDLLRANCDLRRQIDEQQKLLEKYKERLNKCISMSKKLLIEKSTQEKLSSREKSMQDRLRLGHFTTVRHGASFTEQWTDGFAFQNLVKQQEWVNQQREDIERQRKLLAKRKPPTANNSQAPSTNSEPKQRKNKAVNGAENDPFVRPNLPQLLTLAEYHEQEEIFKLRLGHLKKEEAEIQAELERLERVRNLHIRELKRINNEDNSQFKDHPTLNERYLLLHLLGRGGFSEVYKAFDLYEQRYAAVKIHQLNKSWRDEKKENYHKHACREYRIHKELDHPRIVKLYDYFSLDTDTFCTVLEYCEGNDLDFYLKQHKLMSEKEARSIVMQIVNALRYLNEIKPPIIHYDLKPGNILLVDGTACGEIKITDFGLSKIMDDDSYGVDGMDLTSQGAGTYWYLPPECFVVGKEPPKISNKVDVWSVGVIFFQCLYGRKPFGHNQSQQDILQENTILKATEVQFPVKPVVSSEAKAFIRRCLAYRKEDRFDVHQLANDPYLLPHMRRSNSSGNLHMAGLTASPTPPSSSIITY
The assay is described as follows: Selectivity interaction (ActivX KiNativ screen (ex vivo kinase selectivity in human PBMCs)) EUB0001619a TLK1. Format: cell-based. The conditions noted are these: PBMC, at 1 µM.

Assay [11] addresses RAF proto-oncogene serine/threonine-protein kinase (Homo sapiens) (UniProt P04049). The assay is described as follows: Selectivity interaction (Kinase panel (Invitrogen)) EUB0000639a RAF1. As to conditions: at 200 nM.
Assay [12] has as its target Protein kinase C gamma type (Homo sapiens) (UniProt P05129). The experiment in a line: Selectivity interaction (ProQinase) EUB0000171b PRKCG.
The target of assay [13] is Serine/threonine-protein kinase PAK 3 (Homo sapiens) (UniProt O75914). The assay is described as follows: Selectivity interaction (KinomeScan (DiscoverX)) EUB0000595a PAK3. The conditions noted are these: at 10 µM.
Serine/threonine-protein kinase PAK 3 (Homo sapiens), sequence (O75914 whole entry, looked up): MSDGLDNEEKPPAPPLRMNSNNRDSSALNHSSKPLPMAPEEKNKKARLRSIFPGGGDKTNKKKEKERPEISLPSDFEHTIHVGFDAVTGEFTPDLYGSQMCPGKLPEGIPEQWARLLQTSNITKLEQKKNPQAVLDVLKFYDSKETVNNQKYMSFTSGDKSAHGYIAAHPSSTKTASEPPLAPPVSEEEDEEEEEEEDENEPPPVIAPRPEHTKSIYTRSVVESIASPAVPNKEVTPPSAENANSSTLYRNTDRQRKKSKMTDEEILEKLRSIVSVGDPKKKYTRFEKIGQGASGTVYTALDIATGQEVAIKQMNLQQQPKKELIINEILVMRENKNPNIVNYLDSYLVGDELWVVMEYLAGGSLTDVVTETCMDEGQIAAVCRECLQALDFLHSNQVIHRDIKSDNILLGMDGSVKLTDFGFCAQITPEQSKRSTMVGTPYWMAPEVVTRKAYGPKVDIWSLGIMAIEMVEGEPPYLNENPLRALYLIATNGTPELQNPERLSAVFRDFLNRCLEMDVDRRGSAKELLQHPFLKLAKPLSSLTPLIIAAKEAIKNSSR

Mitogen-activated protein kinase kinase kinase 9 (Homo sapiens), sequence (P80192 whole entry, looked up): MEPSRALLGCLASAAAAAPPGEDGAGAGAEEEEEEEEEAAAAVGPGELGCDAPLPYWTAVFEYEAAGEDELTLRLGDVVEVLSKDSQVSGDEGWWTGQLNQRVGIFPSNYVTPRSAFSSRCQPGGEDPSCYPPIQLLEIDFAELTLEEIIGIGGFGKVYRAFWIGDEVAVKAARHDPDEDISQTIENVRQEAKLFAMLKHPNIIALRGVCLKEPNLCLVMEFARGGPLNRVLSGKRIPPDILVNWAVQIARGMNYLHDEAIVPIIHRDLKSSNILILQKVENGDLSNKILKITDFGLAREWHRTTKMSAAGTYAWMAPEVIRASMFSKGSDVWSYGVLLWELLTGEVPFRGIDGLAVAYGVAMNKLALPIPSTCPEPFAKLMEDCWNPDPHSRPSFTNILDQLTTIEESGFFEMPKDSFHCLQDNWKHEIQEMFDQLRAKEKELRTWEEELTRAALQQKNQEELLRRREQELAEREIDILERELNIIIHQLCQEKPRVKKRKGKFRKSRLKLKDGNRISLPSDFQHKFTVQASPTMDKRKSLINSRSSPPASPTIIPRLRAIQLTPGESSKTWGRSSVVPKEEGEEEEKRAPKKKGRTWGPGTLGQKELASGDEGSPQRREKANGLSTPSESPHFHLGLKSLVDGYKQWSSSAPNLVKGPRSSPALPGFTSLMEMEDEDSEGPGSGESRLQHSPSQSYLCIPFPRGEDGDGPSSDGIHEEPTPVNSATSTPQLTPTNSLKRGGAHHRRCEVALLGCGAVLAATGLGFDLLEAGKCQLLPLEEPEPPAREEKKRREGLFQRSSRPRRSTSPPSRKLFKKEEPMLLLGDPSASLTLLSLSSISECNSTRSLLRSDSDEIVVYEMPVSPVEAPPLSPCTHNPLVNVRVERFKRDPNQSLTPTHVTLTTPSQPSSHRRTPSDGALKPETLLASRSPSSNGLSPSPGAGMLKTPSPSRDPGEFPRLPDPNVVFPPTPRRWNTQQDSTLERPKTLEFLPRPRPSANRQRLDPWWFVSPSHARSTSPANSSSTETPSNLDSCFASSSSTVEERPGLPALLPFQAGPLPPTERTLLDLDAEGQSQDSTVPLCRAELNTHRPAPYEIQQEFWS
Calcium/calmodulin-dependent protein kinase type II subunit alpha, sequence (Q9UQM7 whole entry): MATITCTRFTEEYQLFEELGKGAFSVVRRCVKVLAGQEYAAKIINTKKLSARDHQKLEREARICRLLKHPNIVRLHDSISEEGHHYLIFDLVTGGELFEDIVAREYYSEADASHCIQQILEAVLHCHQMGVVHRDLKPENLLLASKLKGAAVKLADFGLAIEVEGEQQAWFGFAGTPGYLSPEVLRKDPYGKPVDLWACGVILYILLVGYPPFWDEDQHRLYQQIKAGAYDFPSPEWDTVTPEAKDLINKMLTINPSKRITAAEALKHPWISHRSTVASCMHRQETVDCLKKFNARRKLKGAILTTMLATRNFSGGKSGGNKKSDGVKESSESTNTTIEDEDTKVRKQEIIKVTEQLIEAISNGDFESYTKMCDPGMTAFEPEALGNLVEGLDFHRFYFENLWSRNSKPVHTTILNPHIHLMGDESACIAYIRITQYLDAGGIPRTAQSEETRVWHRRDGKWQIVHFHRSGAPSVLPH
Tyrosine-protein kinase CSK (Homo sapiens), sequence (P41240 2-450 limits assumed): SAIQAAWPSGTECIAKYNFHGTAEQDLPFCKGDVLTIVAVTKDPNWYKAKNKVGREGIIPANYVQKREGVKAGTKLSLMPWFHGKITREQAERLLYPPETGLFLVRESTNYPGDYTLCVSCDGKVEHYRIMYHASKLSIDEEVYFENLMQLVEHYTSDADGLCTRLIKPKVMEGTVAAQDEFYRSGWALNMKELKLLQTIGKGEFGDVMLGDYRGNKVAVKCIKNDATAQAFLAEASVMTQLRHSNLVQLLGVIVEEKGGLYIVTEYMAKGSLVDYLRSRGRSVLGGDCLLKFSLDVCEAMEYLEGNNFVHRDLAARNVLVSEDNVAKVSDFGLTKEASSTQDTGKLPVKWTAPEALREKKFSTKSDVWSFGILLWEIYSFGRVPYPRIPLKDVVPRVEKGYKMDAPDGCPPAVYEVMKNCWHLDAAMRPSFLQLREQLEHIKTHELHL
RAF proto-oncogene serine/threonine-protein kinase (Homo sapiens), sequence (P04049 whole entry): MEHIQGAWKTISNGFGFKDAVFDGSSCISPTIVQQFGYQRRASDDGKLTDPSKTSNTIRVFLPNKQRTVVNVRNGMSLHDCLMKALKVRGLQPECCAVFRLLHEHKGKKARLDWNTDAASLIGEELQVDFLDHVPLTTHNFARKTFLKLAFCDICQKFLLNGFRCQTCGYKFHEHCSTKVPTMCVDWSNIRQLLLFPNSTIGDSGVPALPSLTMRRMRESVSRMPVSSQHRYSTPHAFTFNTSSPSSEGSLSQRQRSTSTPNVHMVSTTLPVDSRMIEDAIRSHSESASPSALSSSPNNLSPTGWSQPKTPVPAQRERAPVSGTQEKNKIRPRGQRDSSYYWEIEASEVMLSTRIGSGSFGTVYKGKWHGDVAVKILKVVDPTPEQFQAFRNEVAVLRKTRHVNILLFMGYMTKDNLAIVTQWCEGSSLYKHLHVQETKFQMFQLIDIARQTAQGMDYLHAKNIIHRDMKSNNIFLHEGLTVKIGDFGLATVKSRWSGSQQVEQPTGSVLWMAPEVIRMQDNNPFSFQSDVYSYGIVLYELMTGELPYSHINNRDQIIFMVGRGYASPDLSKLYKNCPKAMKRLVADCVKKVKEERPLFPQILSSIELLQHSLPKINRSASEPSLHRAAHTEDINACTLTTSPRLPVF

Turning to `CNC(=O)Nc1ccc(-c2nc(N3CC4CCC(C3)O4)c3cnn(C4CCC5(CC4)OCCO5)c3n2)cc1`, the % of inhibition in assay [1] was 0%; in assay [3], -2%. In assay [2], this compound registered a % of control of 97%.
For `Cc1cc([C@@H](C)Nc2ccccc2C(=O)O)c2nc(N3CCOCC3)cc(=O)n2c1` [AZD-6482], the % of control in [4] was 100%.
In turn, `O=C(NOC[C@H](O)CO)c1ccc(F)c(F)c1Nc1ccc(I)cc1F` returned a % of control in assay [5] of 100%.
In assay [6], `COc1cc(N(C)c2ccnc3ccc(C(F)(F)F)cc23)cc(OC)c1OC` had a % binding of 91%.
Consider `CN(C)CCOc1ccc(-c2nc(-c3ccncc3)c(-c3ccc4c(c3)CC/C4=N\O)[nH]2)cc1`, for which the % of control was 90% in assay [7] and 83% in [8].
Compound `N#Cc1cccc(-c2c[nH]c3ncnc(N4CCOCC4)c23)c1` came in with a % of control in assay [9] of 100%. The % of inhibition in [10] is -4%.
For the compound `CC[C@@H]1[C@H](F)C(=O)N[C@@H]1COc1nccc2cc(C(N)=O)c(OC)cc12` [ZIMLOVISERTIB], in assay [11], the % of inhibition was found to be 10.1%.
Take `C=CC(=O)Nc1cccc(C(=O)Nc2ccc(Nc3cc(-c4[nH]c(SC)nc4C)ccn3)cc2)c1`: the % of control is 88% in assay [12] (at 1 µM) and 100% in [12] (at 5 µM).
In turn, `COCC(=O)NC/C=C/c1ccc2ncnc(Nc3ccc(Oc4ccc(C)nc4)c(C)c3)c2c1` [CP-724714] came in with a % of control in [13] of 70%.
